Measurements as given in patent US8633319B2, “7-(1H-pyrazol-4-yl)-1,6-naphthyridine compounds as Syk inhibitors” (Glaxo Group Limited, priority 2010, dated 2014).
Like-named read-outs stand apart in the source and are kept apart here.

Experiments:
SYK lysate = biological target: T1, SYK lysate (Homo sapiens, UniProt P43405); test: Basic Syk Enzyme Activity; assay type: biochemical; details: read-out: average pIC50 (converted)
T1 construct: Stimulation of Ramos Cells with Anti-IgM Ab to Produce Syk & Preparation of Lysates; endogenous in cells; host or cells: Ramos B cells (human Burkitt's lymphoma, clone 296.4C10, ATCC), stimulated with anti-IgM and lysed in 1% Triton X-100
Description: 3 μl of SYK lysate diluted 16-fold in assay buffer (20 mM TRIS pH 7.4, 0.01% BSA, 0.1% Pluronic F-68) was added to wells containing 0.1 μl of various concentrations of compound or DMSO vehicle (1.7% final) in a Greiner low volume 384 well black plate. Following 15 min pre-incubation at room temperature, the reaction was initiated by the addition of 3 μl of substrate reagent containing Y7 Sox peptide, (Invitrogen Cat. # KNZ3071, 5 μM final), ATP (35 μM final) and MgCl2 (10 mM final) in assay buffer. The reaction was incubated at room temperature before measuring fluorescence intensity (λex 360/λem 485) on an Envision plate reader (Perkin Elmer Life Sciences, Waltham, Mass., USA) at 15 min and 55 min post-substrate addition.
Ramos B Cells (human B cells of Burkitt's lymphoma, clone 296.4C10, ATCC) were cultured in suspension in growth medium (RPMI-1640, Sigma; supplemented with 2 mM L-glutamine, Gibco; 10 mM Hepes, Sigma; 1 mM sodium pyruvate, Sigma; 10% v/v heat-inactivated FCS, Gibco). Cells were grown in Corning Cellstacks (6360 cm^2) in 1 liter volume and viability and cell density were monitored daily. Cells were maintained at <1.5×10e6/ml and >92% viability.
Cells were stimulated at 20×10^6 cells/ml using 15 ug/ml (final concentration) anti-IgM antibody. Following harvest (as described above), a total of 4×10^9 cells were resuspended in 180 ml pre-warmed (37° C.) DPBS in a Corning 500 ml centrifuge bottle. 20 ml anti-IgM antibody at 150 ug/ml were added to each 500 ml centrifuge bottle (working stock made up in DPBS pre-warmed to 37° C.). Cells were incubated for exactly 5 min at 37° C. following the addition of anti IgM antibody. Following 5 min stimulation, 300 ml ice-cold DPBS were added to each bottle to stop the stimulation (temperature drops to ˜12° C.) then cells were centrifuged at 2000 rpm (Sorvall Legend RT+ centrifuge—pre-chilled to 4° C.). Cells were washed by resuspension in ice-cold DPBS and centrifugation as above. The cell pellet was then lysed in ice-cold lysis buffer containing 1% triton-x-100 at a ratio of 150 ul/1×10^7 cells (i.e. 48 ml lysis buffer). Following the addition of lysis buffer, the cells were pipetted up & down & kept on ice for 15 min. The clarified lysate was then obtained by centrifugation (Sorvall Evolution RC (SLA-1500 rotor, ˜20,000 g (˜14,500 rpm), 45 min, 4° C.).
Lysate was aliquoted, snap-frozen on dry-ice & stored at −80° C. prior to assay.
Lysis Buffer: 50 mM TRIS pH7.5+150 mM NaCl+1% Triton-X-100+2 mM EGTA+1:100 dilution inhibitor cocktails (phosphatase inhibitor cocktail set II, calbiochem cat no. 524625 & protease inhibitor cocktail set V, calbiochem cat no. 539137)

Whole blood B cells = test: CD69 Whole Blood Assay; assay type: cell-based; details: Homo sapiens, B-cell, anti-IgM stimulated
Description: Whole blood B cells are stimulated ex-vivo using anti-IgM. […] The subsequent autophosphorylation of Syk leads to initiation of a signalling cascade resulting in B cell activation as indicated by expression of the activation marker CD69 on the cell surface. CD20/CD69+ve whole blood B cells are detected by flow cytometry.
100 μl heparinised human blood was added to a 5 ml polypropylene tube containing 1 μl appropriately diluted compound solution and incubated for 25 min at 37° C. with 5% CO2. B cells were stimulated with 10 μl Fab′2 fragments of goat anti-human IgM (43 μg/ml final concentration) for a further 3.5 h under the conditions previously described. The red blood cells were lysed and all other cells fixed by the addition of 2 ml Lyse/Fix buffer for 10 min at room temperature.
The cells were stained using a cocktail of mouse anti-human CD20 FITC and mouse anti-human CD69 PE conjugated antibodies. CD20/CD69+ve B cells present in the sample were detected by flow cytometry.
Compound was prepared as a 10 mM stock in DMSO, further diluted down in DMSO to 1 mM and a dilution series prepared in DMSO using 7 successive 3-fold dilutions to give the final concentration range to be tested of 1×10^−5 to 4.57×10^−9M. Compound dilutions were prepared using the Biomek 2000 automated robotic pipetting system.

hERG = biological target: T2, hERG (Homo sapiens, UniProt Q12809); test: Cy3B Dofetilide Fluoro-Ligand Binding Assay for hERG; details: membranes of CHO-K1 cells that express hERG, pH 7.4, probe Cy3b-Dofetilide fluoro-ligand, 1.0 nM, hERG-expressing CHO-K1 membranes
T2 construct: expressed in transfected cells; host or cells: CHO-K1 cells stably expressing human hERG; membrane fraction
T2 sequence (Q12809 whole entry): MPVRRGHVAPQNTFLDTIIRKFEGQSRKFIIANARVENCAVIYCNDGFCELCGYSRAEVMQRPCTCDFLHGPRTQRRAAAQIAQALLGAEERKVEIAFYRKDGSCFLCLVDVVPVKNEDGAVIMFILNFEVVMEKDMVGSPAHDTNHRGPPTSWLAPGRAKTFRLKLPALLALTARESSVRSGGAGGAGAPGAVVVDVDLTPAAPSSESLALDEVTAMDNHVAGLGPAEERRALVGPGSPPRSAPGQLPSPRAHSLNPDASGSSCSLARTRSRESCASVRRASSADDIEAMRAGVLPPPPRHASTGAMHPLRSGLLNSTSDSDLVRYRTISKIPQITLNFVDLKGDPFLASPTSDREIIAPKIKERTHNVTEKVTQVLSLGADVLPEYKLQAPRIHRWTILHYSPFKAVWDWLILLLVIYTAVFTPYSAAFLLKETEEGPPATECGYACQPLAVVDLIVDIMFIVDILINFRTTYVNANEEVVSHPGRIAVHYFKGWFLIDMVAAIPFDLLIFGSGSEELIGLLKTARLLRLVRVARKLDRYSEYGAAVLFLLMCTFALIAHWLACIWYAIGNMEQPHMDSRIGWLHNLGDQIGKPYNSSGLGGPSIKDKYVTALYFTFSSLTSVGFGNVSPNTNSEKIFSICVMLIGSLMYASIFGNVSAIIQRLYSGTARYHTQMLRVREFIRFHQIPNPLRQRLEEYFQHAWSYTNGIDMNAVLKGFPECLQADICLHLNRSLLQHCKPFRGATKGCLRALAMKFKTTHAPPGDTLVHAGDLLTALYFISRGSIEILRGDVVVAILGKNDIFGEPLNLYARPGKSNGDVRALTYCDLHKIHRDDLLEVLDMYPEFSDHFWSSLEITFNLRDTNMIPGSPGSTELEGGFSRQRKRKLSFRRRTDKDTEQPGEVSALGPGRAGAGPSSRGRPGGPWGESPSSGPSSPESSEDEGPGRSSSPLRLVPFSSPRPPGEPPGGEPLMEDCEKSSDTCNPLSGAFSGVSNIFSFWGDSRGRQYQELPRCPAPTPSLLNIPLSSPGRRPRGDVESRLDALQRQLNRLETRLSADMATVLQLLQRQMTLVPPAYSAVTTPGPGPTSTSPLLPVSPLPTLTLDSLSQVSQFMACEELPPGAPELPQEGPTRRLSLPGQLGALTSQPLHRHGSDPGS
Description: Compound potencies were determined by a fluoro-ligand^§ (Cy3b-Dofetilide) fluorescence polarisation assay.
hERG-expressing CHO-K1 membranes* (60 μg/ml) were incubated with 1.0 nM fluoro-ligand^§, in assay buffer (25 mM HEPES, 1.2 mM MgCl2, 100 mM KCl and 0.1% pluronic, pH adjusted to 7.4 using 5M KOH). The final potassium concentration in the assay was 100 mM. After 70 min mixing at room temperature, in the dark, 10 μl was dispensed into each well of a black LV Greiner 384-well plate containing 0.1 μl of test compound in DMSO. The plates were left to equilibrate for 2 h before reading on an Acquest™/Analyst™ imager. pIC50 data were generated using from an 11-point inhibition curve (top assay concentration of 50 μM and a 1:3 step-dilution), a […] curve-fit being applied using ABase and XC50 to analyse data and generate curve fits.
Chinese Hamster Ovary (CHO) cells stably expressing the human hERG receptor were grown to 80% confluency before being harvested by trypsinisation and subsequent centrifugation at 500 g for 10 min. Cell pellets were frozen at −80 C before membrane production. The frozen pellet was thawed on ice, re-suspended and homogenised in 10 volumes of membrane buffer (50 mM HEPES, pH 7.4, 1 mM EDTA, 1 mM PMSF, 2×10^-6M Pepstatin A). The membrane suspension was centrifuged for 20 min at 500 g, the pellet discarded and the supernatent spun again at 48,000 g for 30 min. Following the second centrifugation the remaining pellet containing the membrane fraction was re-suspended in an appropriate volume (4 ml for each ml of frozen cell pellet) and assayed for protein concentration.

allergic rhinitis [1] = details: intranasal, phase I/II; cited from earlier work
allergic rhinitis [2] = details: phase II; cited from earlier work
[3] = test system: B-Cell non-Hodgkin's lymphoma (NHL); details: cited from earlier work
B lymphoma (BKS-2) = details: mouse, in vivo; cited from earlier work
[4] = as the free base, read-out: average pIC50 (converted)
[5] = as the free base, read-out: average IC50
[6] = form not stated (first list), read-out: average pIC50 (converted)
[7] = hydrochloric acid salts, read-out: average IC50
[8] = hydrochloric acid salts, read-out: average pIC50 (converted)

| IC50 (SYK lysate; as the free base) [nM] | IC50 (Whole blood B cells; [4]) [nM] | IC50 (Whole blood B cells; [5]) [nM] | Compound | IC50 at 2 h (hERG; [5]) [nM] | IC50 at 2 h (hERG; [6]) [nM] | further results |
| --- | --- | --- | --- | --- | --- | --- |
| ≤ 100 | ≤ 1000 |  | CC(C)(O)Cn1cc(-c2cc3ncccc3c(NC[C@]3(F)CCCNC3)n2)cn1 [Example 5, 1-{4-[5-({[(3S)-3-fluoro-3-piperidinyl]methyl}amino)-1,6-naphthyridin-7-yl]-1H-pyrazol-1-yl}-2-methyl-2-propanol] | > 10000 | > 10000 |  |
| ≤ 100 | ≤ 1000 | < 1000 | COCCn1cc(-c2cc3ncccc3c(NC[C@]3(F)CCCNC3)n2)cn1 [Example 7, N-{[(3S)-3-fluoro-3-piperidinyl]methyl}-7-{1-[2-(methyloxy)ethyl]-1H-pyrazol-4-yl}-1,6-naphthyridin-5-amine] | > 10000 | > 10000 |  |
|  |  |  | OCCn1cc(-c2cc3ncccc3c(NC[C@]3(F)CCCNC3)n2)cn1 [Example 6, 2-{4-[5-({[(3S)-3-fluoro-3-piperidinyl]methyl}amino)-1,6-naphthyridin-7-yl]-1H-pyrazol-1-yl}ethanol] |  |  | IC50 (SYK lysate; hydrochloric acid salts): ≤ 316 nM; IC50 (Whole blood B cells; [7]): < 1000 nM; IC50 (Whole blood B cells; [8]): ≤ 1000 nM; IC50 at 2 h (hERG; [7]): > 20000 nM; IC50 at 2 h (hERG; [8]): > 10000 nM |
| ≤ 100 | ≤ 1000 | < 1000 | FC1(CNc2nc(-c3cnn(C4CCCC4)c3)cc3ncccc23)CCCNC1 (racemic) [Example 8, 7-(1-cyclopentyl-1H-pyrazol-4-yl)-N-[(3-fluoro-3-piperidinyl)methyl]-1,6-naphthyridin-5-amine] | > 10000 | > 10000 |  |
| ≤ 100 | ≤ 1000 | < 1000 | FC1(CNc2nc(-c3cnn(Cc4ccccc4)c3)cc3ncccc23)CCCNC1 (racemic) [Example 10, N-[(3-fluoro-3-piperidinyl)methyl]-7-[1-(phenylmethyl)-1H-pyrazol-4-yl]-1,6-naphthyridin-5-amine] | > 10000 | > 10000 |  |
|  |  |  | Oc1cccc(Nc2ncc(F)c(Nc3cccc(O)c3)n2)c1 [Example R112] |  |  | PGD2 (allergic rhinitis [1]): statistically significant decrease; clinical safety (allergic rhinitis [1]): safe across a range of indicators; efficacy versus placebo (allergic rhinitis [2]): lack of efficacy |
|  |  |  | COc1cc(Nc2ncc(F)c(Nc3ccc4c(n3)N(COP(=O)(O)O)C(=O)C(C)(C)O4)n2)cc(OC)c1OC [Example R788, fostamatinib disodium] |  |  | therapeutic benefit ([3]; patients with DLBCL and CLL/SLL): therapeutic benefit; tolerability ([3]; patients with relapsed or refractory B-Cell NHL): well-tolerated |
|  |  |  | COc1cc(/C=C/C(=O)CC(=O)/C=C/c2ccc(O)c(OC)c2)ccc1O [curcumin] |  |  | tumour burden as measured by the total splenocyte number (B lymphoma (BKS-2)): significant reduction |
| ≤ 100 | ≤ 1000 | < 1000 | CC(C)n1cc(-c2cc3ncccc3c(NCC3(F)CCCNC3)n2)cn1 (single isomer, unassigned) [Example 11A, N-{[3-fluoro-3-piperidinyl]methyl}-7-[1-(1-methylethyl)-1H-pyrazol-4-yl]-1,6-naphthyridin-5-amine] | > 10000 | > 10000 |  |
| ≤ 100 | ≤ 1000 | < 1000 | FC(F)(F)Cn1cc(-c2cc3ncccc3c(NCC3(F)CCCNC3)n2)cn1 (single isomer, unassigned) [Example 9A, N-{[3-fluoro-3-piperidinyl]methyl}-7-[1-(2,2,2-trifluoroethyl)-1H-pyrazol-4-yl]-1,6-naphthyridin-5-amine] | > 10000 | > 10000 |  |
